Results as given in US20100256105A1, “NOVEL COMPOUNDS” (AstraZeneca R&D, priority 2009, published 2010).

target: T1, recombinant human GR (Homo sapiens, UniProt P04150); assay: Human Glucocorticoid Receptor (GR) Assay, fluorescence polarization; details: GS Red tracer, 2 hours at room temperature, 100% control 10 μM Dexamethasone, read-out: Inhibition of GR binding, IC50
T1 construct: purchased Panvera/Invitrogen P2812 (kit P2893)
T1 sequence (P04150 1-777): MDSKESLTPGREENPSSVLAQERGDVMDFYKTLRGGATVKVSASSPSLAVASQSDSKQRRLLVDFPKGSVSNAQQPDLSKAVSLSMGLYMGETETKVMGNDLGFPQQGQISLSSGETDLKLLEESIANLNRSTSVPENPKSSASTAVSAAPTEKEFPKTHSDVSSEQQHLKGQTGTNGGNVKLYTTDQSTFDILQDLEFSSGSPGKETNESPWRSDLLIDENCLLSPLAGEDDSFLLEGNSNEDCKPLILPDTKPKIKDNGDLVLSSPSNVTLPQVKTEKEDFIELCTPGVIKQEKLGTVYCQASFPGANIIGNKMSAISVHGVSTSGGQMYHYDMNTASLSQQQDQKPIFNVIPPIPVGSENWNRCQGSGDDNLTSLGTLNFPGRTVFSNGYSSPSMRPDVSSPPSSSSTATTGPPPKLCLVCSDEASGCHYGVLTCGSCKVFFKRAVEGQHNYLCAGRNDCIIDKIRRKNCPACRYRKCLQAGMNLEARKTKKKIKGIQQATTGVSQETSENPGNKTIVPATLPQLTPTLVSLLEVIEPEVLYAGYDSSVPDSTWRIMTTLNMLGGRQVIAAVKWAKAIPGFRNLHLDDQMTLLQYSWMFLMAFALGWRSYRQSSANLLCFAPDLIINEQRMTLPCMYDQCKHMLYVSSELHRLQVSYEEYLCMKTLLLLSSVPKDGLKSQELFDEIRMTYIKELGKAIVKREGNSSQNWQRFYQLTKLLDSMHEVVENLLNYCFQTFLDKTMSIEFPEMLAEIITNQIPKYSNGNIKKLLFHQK
Method: Human Glucocorticoid Receptor (GR) Assay The assay is based on a commercial kit from Panvera/Invitrogen (Part number P2893). The assay technology is fluorescence polarization. The kit utilises recombinant human GR (Panvera, Part number P2812), a Fluoromone™ labelled tracer (GS Red, Panvera, Part number P2894) and a Stabilizing Peptide 10× (Panvera, Part number P2815). The GR and Stabilizing Peptide reagents are stored at −70° C. while the GS Red is stored at −20° C. Also included in the kit are 1M DTT (Panvera, Part number P2325, stored at −20° C.) and GR Screening buffer 10× (Panvera, Part number P2814, stored at −70° C. initially but once thawed stored at room temperature). Avoid repeated freeze/thaws for all reagents. The GR Screening buffer 10× comprises 100 mM potassium phosphate, 200 mM sodium molybdate, 1 mM EDTA and 20% DMSO. Test compounds (1 μL) and controls (1 μL) in 100% DMSO were added to black polystyrene 384-well plates (Greiner low volume black flat-bottom, part number 784076). 0% control was 100% DMSO and 100% control was 10 μM Dexamethasone. Background solution (8 μL; assay buffer 10×, Stabilizing Peptide, DTT and ice cold MQ water) was added to the background wells. GS Red solution (7 μL; assay buffer 10×, Stabilizing Peptide, DTT, GS Red and ice cold water) was added to all wells except background wells. GR solution (7 μL; assay buffer 10×, Stabilizing Peptide, DTT, GR and ice cold water) was added to all wells. The plate was sealed and incubated in a dark at room temperature for 2 hours. The plate was read in an Analyst plate reader (LJL Biosystems/Molecular Devices Corporation) or other similar plate reader capable of recording fluorescence polarization (excitation wavelength 530 nm, emission wavelength 590 nm and a dichroic mirror at 561 nm).

| SMILES | IC50 [nM] |
| --- | --- |
| COCC(=O)O[C@]1(C(=O)SCC#N)CC[C@H]2[C@@H]3C=C(C)C4=Cc5c(cnn5-c5ccc(F)nc5)C[C@]4(C)[C@H]3[C@@H](O)C[C@@]21C [Example 1, (1R,3aS,3bS,10aR,10bS,11S,12aS)-1-{[(Cyanomethyl)sulfanyl]carbonyl}-7-(6-fluoropyridin-3-yl)-11-hydroxy-5,10a,12a-trimethyl-1,2,3,3a,3b,7,10,10a,10b,-11,12,12a-dodecahydrocyclopenta[5,6]naphtho[1,2-f]indazol-1-yl methoxyacetate] | 2.3 |
| CCC(=O)O[C@]1(C(=O)SCC#N)CC[C@H]2[C@@H]3C=C(C)C4=Cc5c(cnn5-c5ccc(F)nc5)C[C@]4(C)[C@H]3[C@@H](O)C[C@@]21C [Example 2, (1R,3aS,3bS,10aR,10bS,11S,12aS)-1-{[(Cyanomethyl)sulfanyl]carbonyl}-7-(6-fluoropyridin-3-yl)-11-hydroxy-5,10a,12a-trimethyl-1,2,3,3a,3b,7,10,10a,10b,-11,12,12a-dodecahydrocyclopenta[5,6]naphtho[1,2-f]indazol-1-yl propanoate] | 2.1 |
| CCC(=O)O[C@]1(C(=O)SCF)CC[C@H]2[C@@H]3C=CC4=Cc5c(cnn5-c5ccc(F)nc5)C[C@]4(C)[C@H]3[C@@H](O)C[C@@]21C [Example 3, (1R,3aS,3bS,10aR,10bS,11S,12aS)-1-{[(Fluoromethyl)sulfanyl]carbonyl}-7-(6-fluoropyridin-3-yl)-11-hydroxy-10a,12a-dimethyl-1,2,3,3a,3b,7,10,10a,10b,11,12,12a-dodecahydrocyclopenta[5,6]naphtho[1,2-f]indazol-1-ylpropanoate] | 1.4 |
| COCC(=O)O[C@]1(C(=O)SCF)CC[C@H]2[C@@H]3C=CC4=Cc5c(cnn5-c5ccc(F)nc5)C[C@]4(C)[C@H]3[C@@H](O)C[C@@]21C [Example 4, (1R,3aS,3bS,10aR,10bS,11S,12aS)-1-{[(Fluoromethyl)sulfanyl]carbonyl}-7-(6-fluoropyridin-3-yl)-11-hydroxy-10a,12a-dimethyl-1,2,3,3a,3b,7,10,10a,10b,11,12,12a-dodecahydrocyclopenta[5,6]naphtho[1,2-f]indazol-1-yl methoxyacetate] | 0.8 |
| C[C@]12Cc3cnn(-c4ccc(F)nc4)c3C=C1C=C[C@@H]1[C@@H]2[C@@H](O)C[C@@]2(C)[C@H]1CC[C@]2(OC(=O)c1cocn1)C(=O)SCF [Example 5, (1R,3aS,3bS,10aR,10bS,11S,12aS)-1-{[(fluoromethyl)sulfanyl]carbonyl}-7-(6-fluoropyridin-3-yl)-11-hydroxy-10a,12a-dimethyl-1,2,3,3a,3b,7,10,10a,10b,11,12,12a-dodecahydrocyclopenta[5,6]naphtho [1,2-f]indazol-1-yl 1,3-oxazole-4-carboxylate] | 1.5 |
| C[C@]12Cc3cnn(-c4ccc(F)nc4)c3C=C1C=C[C@@H]1[C@@H]2[C@@H](O)C[C@@]2(C)[C@H]1CC[C@]2(OC(=O)c1cocn1)C(=O)SCC#N [Example 6, (1R,3aS,3bS,10aR,10bS,11S,12aS)-1-{[cyanomethyl)sulfanyl]carbonyl}-7-(6-fluoropyridin-3-yl)-11-hydroxy-10a,12a-dimethyl-1,2,3,3a,3b,7,10,10a,10b,11,12,12a-dodecahydrocyclopenta[5,6]naphtho [1,2-f]indazol-1-yl 1,3-oxazole-4-carboxylate] | 1.8 |
| COCC(=O)O[C@]1(C(=O)SCC#N)CC[C@H]2[C@@H]3C=CC4=Cc5c(cnn5-c5ccc(F)nc5)C[C@]4(C)[C@H]3[C@@H](O)C[C@@]21C [Example 7, (1R,3aS,3bS,10aR,10bS,11S,12aS)-1-{[(cyanomethyl)sulfanyl]carbonyl}-7-(6-fluoropyridin-3-yl)-11-hydroxy-10a,12a-dimethyl-1,2,3,3a,3b,7,10,10a,10b,11,12,12a-dodecahydrocyclopenta[5,6]naphtho [1,2-f]indazol-1-yl methoxyacetate] | 0.87 |
| C[C@]12Cc3cnn(-c4ccc(F)nc4)c3C=C1C=C[C@@H]1[C@@H]2[C@@H](O)C[C@@]2(C)[C@H]1CC[C@]2(OC(=O)C1CC1)C(=O)SCF [Example 8, (1R,3aS,3bS,10aR,10bS,11S,12aS)-1-{[(fluoromethyl)sulfanyl]carbonyl}-7-(6-fluoropyridin-3-yl)-11-hydroxy-10a,12a-dimethyl-1,2,3,3a,3b,7,10,10a,10b,11,12,12a-dodecahydrocyclopenta[5,6]naphtho [1,2-f]indazol-1-yl cyclopropanecarboxylate] | 1.4 |

Other lines, results leading:

| IC50 [nM] | SMILES |
| --- | --- |
| 1 | C[C@]12Cc3cnn(-c4ccc(F)nc4)c3C=C1C=C[C@@H]1[C@@H]2[C@@H](O)C[C@@]2(C)[C@H]1CC[C@]2(OC(=O)C1CC1)C(=O)SCC#N [Example 9, (1R,3aS,3bS,10aR,10bS,11S,12aS)-1-{[(cyanomethyl)sulfanyl]carbonyl}-7-(6-fluoropyridin-3-yl)-11-hydroxy-10a,12a-dimethyl-1,2,3,3a,3b,7,- 10,10a,10b,11,12,12a-dodecahydro-cyclopenta[5,6]naphtho[1,2-f]indazol-1-yl cyclopropanecarboxylate] |
| 0.83 | CCC(=O)O[C@]1(C(=O)SCC#N)CC[C@H]2[C@@H]3C=CC4=Cc5c(cnn5-c5ccc(F)nc5)C[C@]4(C)[C@H]3[C@@H](O)C[C@@]21C [Example 10, (1R,3aS,3bS,10aR,10bS,11S,12aS)-1-{[(cyanomethyl)sulfanyl]carbonyl}-7-(6-fluoropyridin-3-yl)-11-hydroxy-10a,12a-dimethyl-1,2,3,3a,3b,7,10,10a,10b,11,12,12a-dodecahydrocyclopenta[5,6]naphtho [1,2-f]indazol-1-yl propanoate] |
| 3.6 | CCC(=O)O[C@]1(C(=O)SCF)CC[C@H]2[C@@H]3C=C(C)C4=Cc5c(cnn5-c5ccc(F)nc5)C[C@]4(C)[C@H]3[C@@H](O)C[C@@]21C [Example 11, (1R,3aS,3bS,10aR,10bS,11S,12aS)-1-{[(fluoromethyl)sulfanyl]carbonyl}-7-(6-fluoropyridin-3-yl)-11-hydroxy-5,10a,12a-trimethyl-1,2,3,3a,3b,7,10,10a,10b,11,12,12a-dodecahydrocyclopenta[5,6]naphtho [1,2-f]indazol-1-yl propanoate] |
| 1.6 | CC1=C[C@@H]2[C@H]([C@@H](O)C[C@@]3(C)[C@H]2CC[C@]3(OC(=O)C2CC2)C(=O)SCF)[C@@]2(C)Cc3cnn(-c4ccc(F)nc4)c3C=C12 [Example 12, (1R,3aS,3bS,10aR,10bS,11S,12aS)-1-{[(fluoromethyl)sulfanyl]carbonyl}-7-(6-fluoropyridin-3-yl)-11-hydroxy-5,10a,12a-trimethyl-1,2,3,3a,3b,7,- 10,10a,10b,11,12,12a-dodecahydro-cyclopenta[5,6]naphtho[1,2-f]indazol-1-yl cyclopropanecarboxylate] |
| 1.5 | CC1=C[C@@H]2[C@H]([C@@H](O)C[C@@]3(C)[C@H]2CC[C@]3(OC(=O)C2CC2)C(=O)SCC#N)[C@@]2(C)Cc3cnn(-c4ccc(F)nc4)c3C=C12 [Example 13, (1R,3aS,3bS,10aR,10bS,11S,12aS)-1-{[cyanomethyl)sulfanyl]carbonyl}-7-(6-fluoropyridin-3-yl)-11-hydroxy-5,10a,12a-trimethyl-1,2,3,3a,3b,7,10,10a,10b,11,12,12a-dodecahydrocyclopenta[5,6]naphtho [1,2-f]indazol-1-yl cyclopropanecarboxylate] |
